Experiment [1] addresses Mu-type opioid receptor (Homo sapiens, UniProt P35372). Briefly: biochemical. The class given is functional.
The target of experiment [2] is T1, Alpha-1A adrenergic receptor (Homo sapiens, UniProt P35348).
T1 sequence (P35348 whole entry): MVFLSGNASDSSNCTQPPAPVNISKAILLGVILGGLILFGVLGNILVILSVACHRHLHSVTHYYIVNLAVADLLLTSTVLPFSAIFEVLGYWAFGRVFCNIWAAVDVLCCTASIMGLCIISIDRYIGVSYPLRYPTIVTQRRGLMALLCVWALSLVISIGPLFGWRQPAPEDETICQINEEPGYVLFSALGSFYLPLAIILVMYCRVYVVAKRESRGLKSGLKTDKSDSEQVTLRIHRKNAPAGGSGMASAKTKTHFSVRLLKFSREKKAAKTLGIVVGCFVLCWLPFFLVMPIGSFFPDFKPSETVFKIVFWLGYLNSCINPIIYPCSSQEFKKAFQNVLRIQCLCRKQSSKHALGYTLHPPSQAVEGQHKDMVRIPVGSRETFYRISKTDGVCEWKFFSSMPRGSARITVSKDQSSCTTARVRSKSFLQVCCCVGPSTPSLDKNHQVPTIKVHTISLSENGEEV

Experiment [3] addresses Gamma-aminobutyric acid receptor subunit alpha-1 (Rattus norvegicus, UniProt P62813).
Experiment [4] addresses T2, Thromboxane A2 receptor (Homo sapiens, UniProt P21731).
T2 sequence (P21731 whole entry): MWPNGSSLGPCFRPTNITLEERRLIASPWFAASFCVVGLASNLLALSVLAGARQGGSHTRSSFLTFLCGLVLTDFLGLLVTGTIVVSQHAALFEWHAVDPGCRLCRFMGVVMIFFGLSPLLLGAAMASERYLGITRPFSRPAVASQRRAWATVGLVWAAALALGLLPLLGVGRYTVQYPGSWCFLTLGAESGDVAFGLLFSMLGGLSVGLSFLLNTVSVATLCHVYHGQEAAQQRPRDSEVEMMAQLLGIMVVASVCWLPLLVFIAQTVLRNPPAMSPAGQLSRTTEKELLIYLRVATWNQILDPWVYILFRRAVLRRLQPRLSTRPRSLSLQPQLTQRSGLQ
The class given is functional, cell-based.

The target of experiment [5] is Histamine H3 receptor (Homo sapiens, UniProt Q9Y5N1).
Sequence of Histamine H3 receptor (Q9Y5N1 whole entry): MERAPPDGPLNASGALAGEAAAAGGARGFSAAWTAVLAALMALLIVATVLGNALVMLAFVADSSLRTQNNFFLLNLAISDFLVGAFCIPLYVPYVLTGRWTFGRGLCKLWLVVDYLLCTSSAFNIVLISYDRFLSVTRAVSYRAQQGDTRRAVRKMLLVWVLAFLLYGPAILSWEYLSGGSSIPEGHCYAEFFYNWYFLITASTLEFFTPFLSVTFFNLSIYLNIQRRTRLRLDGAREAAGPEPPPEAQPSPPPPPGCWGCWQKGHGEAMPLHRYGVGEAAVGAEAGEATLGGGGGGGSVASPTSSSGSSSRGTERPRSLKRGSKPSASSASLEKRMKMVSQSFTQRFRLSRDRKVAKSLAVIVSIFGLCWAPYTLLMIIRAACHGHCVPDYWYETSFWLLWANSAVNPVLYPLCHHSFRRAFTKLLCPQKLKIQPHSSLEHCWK
Experiment [6] concerns the target Sodium-dependent serotonin transporter (Homo sapiens, UniProt P31645).
The target of experiment [7] is T3, Adenosine receptor A3 (Homo sapiens, UniProt P0DMS8).
T3 sequence (P0DMS8 whole entry): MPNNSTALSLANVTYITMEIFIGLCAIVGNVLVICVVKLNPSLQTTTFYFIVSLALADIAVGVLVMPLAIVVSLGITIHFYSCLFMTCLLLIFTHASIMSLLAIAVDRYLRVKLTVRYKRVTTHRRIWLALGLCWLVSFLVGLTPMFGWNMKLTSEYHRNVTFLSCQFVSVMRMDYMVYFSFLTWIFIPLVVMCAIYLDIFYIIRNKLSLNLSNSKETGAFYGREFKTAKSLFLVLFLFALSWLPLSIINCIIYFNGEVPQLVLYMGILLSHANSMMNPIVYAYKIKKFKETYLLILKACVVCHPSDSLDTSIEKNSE

Among the data in ChEMBL document CHEMBL5291721, “A preclinical secondary pharmacology resource illuminates target-adverse drug reaction associations of marketed drugs” (Nat Commun, 2023) are AC50 values, retold here.

Bounds are passed on as bounds.
Note: assay procedure not described here.

Sequence of Gamma-aminobutyric acid receptor subunit alpha-1 (P62813 whole entry): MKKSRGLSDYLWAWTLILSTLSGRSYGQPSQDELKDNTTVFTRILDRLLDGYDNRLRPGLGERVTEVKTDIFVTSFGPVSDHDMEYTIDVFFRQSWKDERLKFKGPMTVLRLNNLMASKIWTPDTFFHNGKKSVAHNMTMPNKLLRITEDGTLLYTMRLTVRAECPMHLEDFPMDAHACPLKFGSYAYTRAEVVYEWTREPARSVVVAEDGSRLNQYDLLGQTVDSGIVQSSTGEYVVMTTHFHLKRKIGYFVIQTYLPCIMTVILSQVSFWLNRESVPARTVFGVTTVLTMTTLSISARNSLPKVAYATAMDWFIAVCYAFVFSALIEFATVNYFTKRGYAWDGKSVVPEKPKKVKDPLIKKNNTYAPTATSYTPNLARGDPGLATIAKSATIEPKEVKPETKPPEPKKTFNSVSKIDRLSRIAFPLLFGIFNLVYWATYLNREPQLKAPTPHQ
Sequence of Sodium-dependent serotonin transporter (P31645 whole entry): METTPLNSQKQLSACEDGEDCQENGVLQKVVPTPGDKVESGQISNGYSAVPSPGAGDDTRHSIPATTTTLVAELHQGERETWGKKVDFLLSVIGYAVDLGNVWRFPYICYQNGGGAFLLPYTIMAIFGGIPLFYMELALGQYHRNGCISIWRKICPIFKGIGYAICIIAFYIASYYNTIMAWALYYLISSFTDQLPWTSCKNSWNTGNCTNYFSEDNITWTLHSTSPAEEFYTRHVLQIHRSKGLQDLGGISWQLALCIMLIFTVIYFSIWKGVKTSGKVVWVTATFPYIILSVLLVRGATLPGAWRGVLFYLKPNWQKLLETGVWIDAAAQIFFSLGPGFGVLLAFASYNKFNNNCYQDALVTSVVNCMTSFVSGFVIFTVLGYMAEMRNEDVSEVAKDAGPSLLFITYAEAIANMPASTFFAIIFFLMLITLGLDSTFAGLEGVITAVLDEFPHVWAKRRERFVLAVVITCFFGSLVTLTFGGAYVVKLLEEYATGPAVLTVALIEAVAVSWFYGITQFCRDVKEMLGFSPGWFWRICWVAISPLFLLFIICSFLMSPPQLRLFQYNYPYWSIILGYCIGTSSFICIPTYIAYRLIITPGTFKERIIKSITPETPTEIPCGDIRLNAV
Sequence of Mu-type opioid receptor (P35372 whole entry): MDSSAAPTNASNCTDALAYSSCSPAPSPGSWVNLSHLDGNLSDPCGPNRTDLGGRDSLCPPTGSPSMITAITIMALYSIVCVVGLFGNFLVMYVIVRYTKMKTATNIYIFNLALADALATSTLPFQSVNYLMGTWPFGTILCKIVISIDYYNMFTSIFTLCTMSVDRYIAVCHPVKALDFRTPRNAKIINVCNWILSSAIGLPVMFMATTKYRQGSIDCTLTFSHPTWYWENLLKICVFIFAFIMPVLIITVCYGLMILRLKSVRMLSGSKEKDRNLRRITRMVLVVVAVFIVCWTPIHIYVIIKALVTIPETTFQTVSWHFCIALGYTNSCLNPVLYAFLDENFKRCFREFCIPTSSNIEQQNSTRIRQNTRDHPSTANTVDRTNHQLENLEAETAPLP

A word on the AC50: it is the midpoint of the concentration-response curve, whichever way the signal moves. With `Cc1cc2cc3c(C)cc(=O)oc3c(C)c2o1` [TRIOXSALEN], the figures for the AC50 in experiment [1] and in experiment [2] were above 30 µM and above 10 µM, respectively.

Regarding `Clc1ccc(C(Cn2ccnc2)OCc2ccsc2Cl)c(Cl)c1` (stereo not given) [TIOCONAZOLE], the AC50 is above 30 µM in experiment [1] and 13.5 µM in experiment [2].

Molecule `Clc1ccc2c(N3CCN(CCCN4CCN(c5ccnc6cc(Cl)ccc56)CC4)CC3)ccnc2c1` [PIPERAQUINE] registered an AC50 in experiment [1] above 30 µM.

`CNCc1ccc(-c2[nH]c3cc(F)cc4c3c2CCNC4=O)cc1` [RUCAPARIB] yielded an AC50 in experiment [2] of 12.3 µM.

`CN1CCC(=C2c3ccccc3CCc3cccnc32)CC1` [AZATADINE] registered an AC50 in experiment [2] of 8.64 µM.

On to `COCC1=C(C(=O)O)N2C(=O)[C@@H](NC(=O)/C(=N\OC)c3csc(N)n3)[C@H]2SC1` [CEFPODOXIME], for which, in experiment [1], the AC50 was above 30 µM.

`O=[N+]([O-])c1ccc(O)c2ncccc12` [NITROXOLINE]: the AC50 in experiment [3], in experiment [4], in experiment [5] and in experiment [6] was above 30 µM each time.

Take `C[C@H](Cc1ccc(O)c(O)c1)[C@@H](C)Cc1ccc(O)c(O)c1` [MASOPROCOL]: in experiment [2], half-maximal activity (AC50) was put at 8.61 µM.

As to `CC(N)Cc1ccc(O)cc1` (stereo not given) [HYDROXYAMPHETAMINE], the AC50 in experiment [3], in experiment [4], in experiment [7], in experiment [5] and in experiment [6] was above 30 µM each time.

On to `CC(C(=O)O)c1ccc(-c2ccccc2)c(F)c1` (stereo not given) [FLURBIPROFEN], for which the AC50 in experiment [3] was above 30 µM; in experiment [4], above 30 µM; in experiment [7] it was above 30 µM; in experiment [5], above 30 µM; in experiment [1], above 30 µM; in experiment [2] it was above 10 µM.

As to `Cc1cc(NC(=O)C2=C(O)c3ccccc3S(=O)(=O)N2C)no1` [ISOXICAM], the AC50 in experiment [3], in experiment [4], in experiment [7], in experiment [5] and in experiment [6] was above 30 µM each time.

In the case of `C=C1CC[C@H](O)C/C1=C/C=C1\CCC[C@]2(C)[C@@H]([C@H](C)/C=C/[C@H](C)C(C)C)CC[C@@H]12` [ERGOCALCIFEROL], the AC50 in experiment [3], in experiment [4] and in experiment [5] was above 30 µM throughout.

Take `CC[C@@H]([C@H](C)O)n1ncn(-c2ccc(N3CCN(c4ccc(OC[C@@H]5CO[C@@](Cn6cncn6)(c6ccc(F)cc6F)C5)cc4)CC3)cc2)c1=O` [POSACONAZOLE]: the AC50 in experiment [3], in experiment [4] and in experiment [5] was above 30 µM in each case.

`CC(C)(C)C(=O)OCC(=O)[C@H]1CC[C@H]2[C@@H]3CCC4=CC(=O)CC[C@]4(C)[C@H]3CC[C@]12C` [DESOXYCORTICOSTERONE PIVALATE] registered an AC50 in experiment [2] above 10 µM.

`NC(=O)OCC(O)COc1ccc(Cl)cc1` (stereo not given) [CHLORPHENESIN CARBAMATE]: the AC50 in experiment [3], in experiment [4], in experiment [7], in experiment [5] and in experiment [6] was above 30 µM in each case.

In the case of `CCC(=O)O[C@H]1CC[C@H]2[C@@H]3CCC4=CC(=O)CC[C@]4(C)[C@H]3CC[C@]12C` [TESTOSTERONE PROPIONATE], the AC50 in experiment [2] is above 10 µM.

`Cc1cccc(N2CC(CO)OC2=O)c1` (stereo not given) [TOLOXATONE] displayed an AC50 in experiment [1] above 30 µM.

As for `NCC(CC(=O)O)c1ccccc1` (stereo not given) [PHENIBUT], the AC50 in experiment [3], in experiment [4], in experiment [7], in experiment [5] and in experiment [6] was above 30 µM in each case.

Consider `CCCCC(=O)O[C@]1(C(=O)CO)[C@@H](C)C[C@H]2[C@@H]3CCC4=CC(=O)C=C[C@]4(C)[C@@]3(F)[C@@H](O)C[C@@]21C` [BETAMETHASONE VALERATE], for which the AC50 in experiment [2] is above 10 µM.

In experiment [1], `C#C[C@]1(OC(C)=O)CC[C@H]2[C@@H]3CCC4=C/C(=N/O)CC[C@@H]4[C@H]3CC[C@@]21CC` [NORGESTIMATE] registered an AC50 above 30 µM.

With `C=CCSCC1Nc2cc(Cl)c(S(N)(=O)=O)cc2S(=O)(=O)N1` (stereo not given) [ALTHIAZIDE], the AC50 in experiment [3], in experiment [4], in experiment [7], in experiment [5] and in experiment [6] was above 30 µM throughout.

As to `C=CCNc1nc(NCC=C)nc(N2CCN(C(c3ccc(F)cc3)c3ccc(F)cc3)CC2)n1` [ALMITRINE], the AC50 in experiment [1] and in experiment [2] was above 30 µM each time.

Regarding `CCCN[C@H]1CCc2nc(N)sc2C1` [PRAMIPEXOLE], the AC50 in experiment [2] was above 10 µM.

For the molecule `CN1C(=O)/C(=N\NC(N)=S)c2ccccc21` [METHISAZONE], the AC50 in experiment [3] was 12.3 µM; in experiment [4] it was 21.8 µM; in experiment [7], 13.9 µM; in experiment [5] it was above 30 µM; in experiment [6] it was above 30 µM.

Consider `C[C@]12CC[C@@H]3c4ccc(O)cc4C[C@@H](CCCCCCCCC[S+]([O-])CCCC(F)(F)C(F)(F)F)[C@H]3[C@@H]1CC[C@@H]2O` (stereo not given in full) [FULVESTRANT], for which the AC50 in experiment [1] is above 30 µM.

On to `CC(C)[C@H](N)C(=O)OCC(CO)OCn1cnc2c(=O)nc(N)[nH]c21` (stereo not given in full) [VALGANCICLOVIR], for which the AC50 in experiment [1] and in experiment [2] was above 30 µM throughout.

In turn, `CC1(C)S[C@@H]2[C@H](NC(=O)[C@H](N)c3ccccc3)C(=O)N2[C@H]1C(=O)OCOC(=O)[C@@H]1N2C(=O)C[C@H]2S(=O)(=O)C1(C)C` [SULTAMICILLIN] showed an AC50 in experiment [1] above 30 µM.

`COc1ccc(CN(CCN(C)C)c2ccccn2)cc1` [PYRILAMINE]: the AC50 in experiment [3], in experiment [4], in experiment [7] and in experiment [5] was above 30 µM in each case.

As for `CCN(CC)C(=S)S` [DITIOCARB], the AC50 in experiment [3], in experiment [4], in experiment [5] and in experiment [6] was above 30 µM each time.

`C[C@]12CCC(=O)C(O)=C1CC[C@@H]1[C@@H]2CC[C@]2(C)C(=O)CC[C@@H]12` [FORMESTANE] gave an AC50 in experiment [1] above 30 µM.

Consider `COc1cc(N2CCC(N3CCN(C)CC3)CC2)ccc1Nc1ncc(Cl)c(Nc2ccccc2P(C)(C)=O)n1` [BRIGATINIB], for which the AC50 is above 30 µM in experiment [3]; above 30 µM in experiment [4]; above 30 µM in experiment [7]; 2.53 µM in experiment [5]; above 30 µM in experiment [6].

Take `Cc1noc(NS(=O)(=O)c2ccc(N)cc2)c1C` [SULFISOXAZOLE]: the AC50 in experiment [2] was above 10 µM.

As to `COc1cc2c(cc1OC)CC(=O)N(CCCN(C)C[C@H]1Cc3cc(OC)c(OC)cc31)CC2` [IVABRADINE], the half-maximal activity concentration (AC50) in experiment [3] is above 30 µM; in experiment [4], above 30 µM; in experiment [7], above 30 µM; in experiment [5], above 30 µM; in experiment [6], 11.9 µM.

The molecule `CC(=O)N[C@@H](CS)C(=O)O` [ACETYLCYSTEINE] returned an AC50 in experiment [1] above 30 µM.

Consider `CCCCC1C(=O)N(c2ccccc2)N(c2ccccc2)C1=O` [PHENYLBUTAZONE], for which, in experiment [2], the AC50 is above 10 µM.

Take `CCCC(CCC)C(N)=O` [VALPROMIDE]: the AC50 in experiment [2] is above 10 µM.

On to `CCC(C)C1(CC)C(=O)NC(=O)NC1=O` (stereo not given) [BUTABARBITAL], for which, in experiment [1], the AC50 was above 30 µM.

`C/N=C(\NC)NCc1ccccc1` [BETHANIDINE] came in with an AC50 in experiment [1] above 30 µM.

As for `CC1OC2(CS1)CN1CCC2CC1` (stereo not given) [CEVIMELINE], the AC50 in experiment [1] and in experiment [2] was above 30 µM in each case.

In the case of `CNC1=Nc2ccc(Cl)cc2C(c2ccccc2)=[N+]([O-])C1` [CHLORDIAZEPOXIDE], the AC50 in experiment [2] was above 10 µM.

As for `CC(=O)O[C@]1(C(C)=O)CC[C@H]2[C@@H]3C=C(Cl)C4=CC(=O)CC[C@]4(C)[C@H]3CC[C@@]21C` [CHLORMADINONE ACETATE], the AC50 is above 30 µM in experiment [3], above 30 µM in experiment [4], 21 µM in experiment [7] and above 30 µM in experiment [5].

Consider `Nc1ncn([C@H]2C[C@H](O)[C@@H](CO)O2)c(=O)n1` [DECITABINE], for which the AC50 in experiment [1] and in experiment [2] was above 30 µM in each case.

In turn, `CC(C(=O)O)c1ccc(CC2CCCC2=O)cc1` (stereo not given) [LOXOPROFEN] had an AC50 in experiment [1] above 30 µM.

On to `CCC1(c2ccccc2)CCC(=O)NC1=O` (stereo not given) [GLUTETHIMIDE], for which, in experiment [2], the AC50 was above 10 µM.

In the case of `CCC(C)C(CC)C(N)=O` (stereo not given) [VALNOCTAMIDE], the AC50 in experiment [1] is above 30 µM.

In experiment [2], `CCOC(=O)c1cncn1[C@H](C)c1ccccc1` [ETOMIDATE] registered an AC50 above 10 µM.
